Assays:
[1] = Cmax in dog plasma after oral dose (1 mg/kg); format: ADME, organism-based, Canis lupus familiaris; design: dose 1 mg/kg, route oral
Prothrombin = Prothrombin (Homo sapiens, UniProt P00734); assay: In vitro inhibitory activity against human Thrombin (FIIa) cleavage of the chromogenic substrate
in vivo [2] = details: dog, po, 1 mg/kg
in vivo [3] = details: dog, po, 1 mg/kg; remark: listed apart in the source
[4] = Ionisation constant (pKa); format: physicochemical

Row | SMILES | Cmax [1] | Ki (Prothrombin) | half-life (in vivo [2]) | AUC (in vivo [3]; plasma) | pKa [4] | AUC (in vivo [3]; in vivo)
1 | CCc1cnc(NCCc2ccccc2)c(=O)n1CC(=O)NCc1ccc2[nH]ccc2c1 | 310 ng/mL | 23.7 nM | 1.4 h | 523 ng·h/mL | – | –
2 | Cc1cnc(NCCc2ccccc2)c(=O)n1CC(=O)NCc1ccc2c(N)noc2c1 | 1030 ng/mL | 82.2 nM | 2.52 h | 3950 ng·h/mL | 8.6 | –
3 | Cc1cnc(NCCc2ccc3c(c2)CCO3)c(=O)n1CC(=O)NCc1ccc2[nH]ncc2c1 | – | 2.9 nM | – | – | – | –
4 | Cc1ccc(NS(=O)(=O)Cc2ccc(Cl)cc2)c(=O)n1CC(=O)NCc1ccc2[nH]cnc2c1 | 170 ng/mL | 6.5 nM | 1.15 h | 202 ng·h/mL | 5.8 | –
5 | Cc1cnc(NCCc2ccccc2)c(=O)n1CC(=O)NCc1ccc2cn[nH]c2c1 | 960 ng/mL | – | 0.417 h | 2200 ng·h/mL | – | –
6 | Cc1cnc(NCC2(c3ccccn3)CC2)c(=O)n1CC(=O)NCc1ccc2c(N)noc2c1 | 770 ng/mL | 25.9 nM | 1.67 h | 2230 ng·h/mL | 8.6 | –
7 | Cc1ccc(NS(=O)(=O)Cc2ccccc2)c(=O)n1CC(=O)NCc1ccc2c(N)[nH]nc2n1 | – | 1590 nM | – | – | 6.7 | –
8 | COc1cccc(S(=O)(=O)Nc2cccn(CC(=O)NCc3ccc4[nH]nc(N)c4c3)c2=O)c1 | 930 ng/mL | 325 nM | 4.57 h | 3950 ng·h/mL | 3.6 | –
9 | Cc1ccc(NS(=O)(=O)Cc2ccccc2)c(=O)n1CC(=O)NCc1ccc2c(N)noc2c1 | 1600 ng/mL | 74.3 nM | 1.55 h | 3680 ng·h/mL | 8.6 | –
10 | Cc1cnc(NCC(c2ccccc2)c2ccccc2)c(=O)n1CC(=O)NCc1ccc2c(N)noc2c1 | 300 ng/mL | 31 nM | 4.17 h | 2200 ng·h/mL | 8.6 | –
11 | Cc1cnc(NCCc2ccccc2)c(=O)n1CC(=O)NCc1ccc2[nH]cnc2c1 | 390 ng/mL | – | 1.77 h | 1630 ng·h/mL | 5.8 | –
12 | Cc1ccc(NS(=O)(=O)Cc2ccccc2)c(=O)n1CC(=O)NCc1ccc2onc(N)c2c1 | 240 ng/mL | – | 2.2 h | 630 ng·h/mL | 8.2 | –
13 | Cc1cnc(NCCc2ccc(F)cc2)c(=O)n1CC(=O)NCc1ccc2c(N)noc2c1 | 640 ng/mL | 17.6 nM | 4.35 h | 4680 ng·h/mL | 8.6 | –
14 | Cc1nc2cc(CNC(=O)Cn3c(C)cnc(NCCc4ccccc4)c3=O)ccc2[nH]1 | – | > 3970 nM | – | – | 6.4 | –
15 | Cc1cnc(NCCc2ccccc2)c(=O)n1CC(=O)NCc1ccc2[nH]ncc2c1 | – | 18.4 nM | – | – | – | –
16 | Cc1cnc(NCC2(c3ccc(F)cc3)CC2)c(=O)n1CC(=O)NCc1ccc2c(N)noc2c1 | 850 ng/mL | 15.5 nM | 2.17 h | 3150 ng·h/mL | 8.6 | –
17 | COc1ccc(C2(CNc3ncc(C)n(CC(=O)NCc4ccc5[nH]nc(N)c5c4)c3=O)CC2)cc1 | 1370 ng/mL | 9 nM | 1.48 h | 3270 ng·h/mL | 3.6 | –
18 | Cc1cnc(NC[C@H](C)c2ccccc2)c(=O)n1CC(=O)NCc1ccc2[nH]ncc2c1 | – | 5.7 nM | – | – | – | –
19 | Cc1cnc(NCCc2ccc3c(c2)CCC3)c(=O)n1CC(=O)NCc1ccc2[nH]ccc2c1 | – | 29.8 nM | – | – | – | –
20 | COc1ccc(CCNc2ncc(C)n(CC(=O)NCc3ccc4[nH]cnc4c3)c2=O)cc1 | 190 ng/mL | 5 nM | 1.52 h | 458 ng·h/mL | 5.8 | –
21 | Cc1cnc(NCCc2ccccc2)c(=O)n1CC(=O)NCc1ccc2nc(N)sc2c1 | – | > 3970 nM | – | – | 7.5 | –
22 | Cc1nc(N)ccc1CNC(=O)Cn1c(C)cnc(NCCc2ccccc2)c1=O [L-375378] | 900 ng/mL | 1 nM | 3.32 h | – | – | 4580 ng·h/mL
23 | Cc1cc2cn[nH]c2cc1CNC(=O)Cn1c(C)ccc(NS(=O)(=O)Cc2ccccc2)c1=O | – | 271 nM | – | – | 4 | –

Row | SMILES | Cmax [1] | Ki (Prothrombin) | half-life (in vivo [2]) | AUC (in vivo [3]; plasma) | pKa [4] | AUC (in vivo [3]; in vivo)
24 | Cc1cnc(NCCc2ccccc2)c(=O)n1CC(=O)NCc1ccc2[nH]nc(N)c2c1 | 1030 ng/mL | – | 2.77 h | 4850 ng·h/mL | 3.6 | –
25 | Cc1cnc(NC[C@@H](C)c2ccccc2)c(=O)n1CC(=O)NCc1ccc2[nH]cnc2c1 | 480 ng/mL | 9.3 nM | 1.15 h | 1010 ng·h/mL | 5.8 | –
26 | Cc1ccc(NS(=O)(=O)Cc2ccccc2)c(=O)n1CC(=O)NCc1ccc2c(N)[nH]nc2c1 | 580 ng/mL | 224 nM | 1.4 h | 1310 ng·h/mL | 3.8 | –
27 | Cc1nc(N)ccc1CNC(=O)Cn1c(C)ccc(NS(=O)(=O)Cc2ccccc2)c1=O [L-374087] | 790 ng/mL | 0.7 nM | 1.78 h | – | – | 2670 ng·h/mL
28 | Cc1cnc(NCC2(c3ccccc3)CCC2)c(=O)n1CC(=O)NCc1ccc2c(N)noc2c1 | 620 ng/mL | 10.2 nM | 1.95 h | 2150 ng·h/mL | 8.6 | –
29 | Cc1cnc(NCCc2ccccc2)c(=O)n1CC(=O)NCc1ccc2[nH]nnc2c1 | – | 224 nM | – | – | – | –
30 | Cc1cnc(NCCc2ccccn2)c(=O)n1CC(=O)NCc1ccc2[nH]ncc2c1 | – | 3.1 nM | – | – | – | –
31 | Cc1cnc(NCC2(c3ccc(F)cc3)CC2)c(=O)n1CC(=O)NCc1ccc2[nH]nc(N)c2c1 | 880 ng/mL | 15.4 nM | 2.07 h | 2950 ng·h/mL | 3.6 | –
32 | COc1cccc(CCNc2ncc(C)n(CC(=O)NCc3ccc4[nH]ncc4c3)c2=O)c1 | – | 10.4 nM | – | – | – | –
33 | Cc1ccc(NS(=O)(=O)c2ccc3c(c2)CCO3)c(=O)n1CC(=O)NCc1ccc2[nH]ncc2c1 | – | 3.9 nM | – | – | – | –
34 | Cc1cnc(NCCc2ccccc2)c(=O)n1CC(=O)NCc1ccc2[nH]nc(O)c2c1 | 30 ng/mL | 33 nM | – | 18.3 ng·h/mL | 6.3 | –
35 | Cc1cnc(NCC(F)(F)c2ccccc2)c(=O)n1CC(=O)NCc1ccc2c(N)noc2c1 | 1200 ng/mL | 2.5 nM | 3.28 h | 6030 ng·h/mL | 8.6 | –
36 | Cc1ccc(NS(=O)(=O)c2ccc3c(c2)CCO3)c(=O)n1CC(=O)NCc1ccc2[nH]nc(N)c2c1 | 230 ng/mL | 28.7 nM | 1.2 h | 298 ng·h/mL | 3.6 | –
37 | Cc1n[nH]c2ccc(CNC(=O)Cn3c(C)cnc(NCCc4ccccc4)c3=O)cc12 | – | 444 nM | – | – | – | –
38 | Cc1ccc(NS(=O)(=O)Cc2ccccc2)c(=O)n1CC(=O)NCc1ccc2c(N)noc2n1 | 280 ng/mL | 203 nM | 0.6 h | 237 ng·h/mL | 4.7 | –
39 | Cc1ccc(NS(=O)(=O)Cc2ccccc2)c(=O)n1CC(=O)NCc1ccc2[nH]nc(N)c2c1 | – | 72.9 nM | – | – | 3.6 | –
40 | Cc1ccc(NS(=O)(=O)Cc2ccccc2)c(=O)n1CC(=O)NCc1ccc2[nH]ncc2c1 | 410 ng/mL | 8.7 nM | 0.6 h | 515 ng·h/mL | – | –
41 | Cc1cnc(NCCc2ccc3c(c2)CCC3)c(=O)n1CC(=O)NCc1ccc2c(ccn2N)c1 | – | 12400 nM | – | – | 7.4 | –
42 | Cc1cnc(NCC(F)(F)c2ccccc2)c(=O)n1CC(=O)NCc1ccc2[nH]nc(N)c2c1 | 960 ng/mL | 4.1 nM | 3.63 h | 5930 ng·h/mL | 3.6 | –
43 | Cc1ccc(NS(=O)(=O)Cc2ccc(Br)cc2)c(=O)n1CC(=O)NCc1ccc2c(N)noc2c1 | 1520 ng/mL | 22.2 nM | 1.82 h | 5470 ng·h/mL | 8.6 | –
44 | Cc1cnc(NCC2(c3ccccc3)CCC2)c(=O)n1CC(=O)NCc1ccc2[nH]nc(O)c2c1 | – | 10 nM | – | – | 6.3 | –
45 | Cc1ccc(NS(=O)(=O)c2ccc3c(c2)CCO3)c(=O)n1CC(=O)NCc1ccc2c[nH]nc2c1 | – | 1320 nM | – | – | – | –
46 | COc1cccc(S(=O)(=O)Nc2cccn(CC(=O)NCc3ccc4c(N)[nH]nc4c3)c2=O)c1 | 350 ng/mL | – | 1.85 h | 1040 ng·h/mL | 3.8 | –
